Measured values: patent US20130296370A1, “COMPOSITION COMPRISING A PHOTOACTIVATABLE LARVICIDE” (UNIVERSITA DEGLI STUDI DI PADOVA, priority 2010, published 2013)

Legend:
[1] = Aggregation of C14 by Beer-Lambert titration; format: physicochemical; details: aqueous solution; linear plot of Soret band at 424 nm
Method: To test the possible occurrence of aggregation processes for this porphyrin, the intensity of the Soret band was titrated as a function of the porphyrin concentration according to the Beer-Lambert law. In a first phase of our investigations, the data were calculated up to a porphyrin concentration of 0.16 mM (FIG. 1A), since the optical density of more concentrated porphyrin solutions became too large even using cuvettes of 0.1 cm optical path. […] This spectral feature is generally attributed to the presence of porphyrin oligomers (Reddi E, Ceccon M, Valduga G, Joni G, Bommer J C, et al. (2002) Photophysical properties and antibacterial activity of meso-substituted cationic porphyrins. Photochem Photobiol 75: 462-470). To test the possibility that the hydrophobicity imparted by the long alkyl chain of C14 may favour the occurrence of some aggregation as the concentration increases, the titration was extended to larger molarities calculating the absorbance values at 404 nm instead of 424 nm (FIG. 2B).

[2] = Adsorption and release of C14 on powdered food pellet (PFP); format: physicochemical; details: 70 mg PFP in 500 ml 5 μM C14, 28° C., dark
Method: C14 appeared to remain stably associated with food particles. Specifically, the C14 concentrations in the incubation buffers ranged from 0.01 μM (pH 7.0) to 0.024 μM (pH 9.5), corresponding to a release of just 2.14%-5.15% of the initial C14 amount.
A standard food pellet for laboratory rodents, namely 4RF18 GLP (Mucedola Srl, Italy), commonly used as mosquito larval food, was crushed using an electric blender and then sieved (mesh diameter 500 μm) to obtain powdered food pellet (PFP) with final particle diameter of 5-500 μm diameter. C14-PFP complexes were obtained by incubating PFP in C14 solutions. The loading of C14 on PFP and the dynamics of its release from the C14-PFP complexes in water were analysed by spectrophotometric quantification. Specifically, to evaluate the C14 binding rate on PFP, 70 mg of PFP were incubated in 500 ml of a 5 μM solution of C14, at 28° C. for 5 days, in the dark. The same C14 solution without PFP served as control. The amount of unbound porphyrin was then estimated by measuring the absorbance at 423 nm of the supernatant of aliquots of the solutions collected at various incubation times and centrifuged at 10,000 rpm for 10 minutes. […] The amount of porphyrin released in the media from the formulate complexes was measured as described above. […]

[3] = tested on: Aedes aegypti larvae; assay: C14 porphyrin toxicity in the light; format: in vivo; details: 5 μM C14
Method: […] After the irradiation period, larvae were kept in the dark and larval mortality was monitored for 6 days. Arithmetic means of percentages of dead larvae. Error bars represent standard deviations (n=3 replicates of 50 larvae each).
Irradiation of mosquito larvae were performed by employing full spectrum visible light (400-800 nm) at a fluence rate of 1.0 to 4.0 mW/cm^2 using low-pressure mercury discharge fluorescent tubes TL-D Standard Colours (TL-D 58W/33-640 1SL, PHILIPS, EC). The intensity of the incident radiation was measured by an ILT1400A radiometer/photometer, equipped with a SED623/HNK15 multi-junction thermopile detector (International Light Technologies Inc., MA, USA).
All the experiments were carried out in a climatic chamber at 28±2° C. with a regulated photoperiod of 12 hours. Transparent plastic trays, containing 500 ml C14 solutions or spring water were employed. Typically, 5±1 days old, 3rd-early 4th instar Aedes aegypti larvae were used. All the experiments were replicated three times.
Fifty larvae were added to groups of trays containing 5 μM porphyrin C14 solution or spring water as a control. Trays were provided with PFP (wherein PFP means powdered food pellet (PFP) with final particle diameter of 5-500 μm diameter obtained by crushing a standard food pellet for laboratory rodents, namely 4RF18 GLP (Mucedola Srl, Italy) using an electric blender and then sieving at mesh diameter 500 μm) and incubated in the dark for 12 hours. […] After irradiation, the trays were returned in the dark, and larval mortality was assessed every 24 hours for the following 6 days. Larvae not moving or not showing a normally vigorous escaping response at probing were defined as dead or dying, respectively, and counted together. Pupae formed during the experiment were transferred to smaller trays containing spring water, within screened cages at normal colony photoperiod conditions, and monitored for mortality and adult emergence.

CCCCCCCCCCCCCC[n+]1ccc(-c2c3nc(c(-c4cc[n+](C)cc4)c4ccc([nH]4)c(-c4cc[n+](C)cc4)c4nc(c(-c5cc[n+](C)cc5)c5ccc2[nH]5)C=C4)C=C3)cc1.Cc1ccc(S(=O)(=O)[O-])cc1.Cc1ccc(S(=O)(=O)[O-])cc1.Cc1ccc(S(=O)(=O)[O-])cc1.Cc1ccc(S(=O)(=O)[O-])cc1 [C14, meso-tri(N-methyl-pyridyl), mono(N-tetradecyl-pyridyl)porphine]
concentration up to which a purely monomeric state is indicated [1]: up to 0.16 mM | C14 bound to the PFP particles ([2]; 24 hours): 82% | C14 bound to the PFP particles ([2]; 5 days): 92% | larval mortality ([3]; 6 hour-long light, count 24 hours later): 100% | larval mortality ([3]; dark-incubated 8 hours, 6 hour-long light 1.0-4.0 mW/cm^2, within irradiation period): 97.99%±0.05% | larval mortality ([3]; irradiated one hour, thereafter kept in the dark, day 6): 92.1%±7.9%
